Patent US20190167814A1, “Treatment And/Or Prevention Of DNA-Triplet Repeat Diseases Or Disorders” (UNIVERSITÉ DE LAUSANNE, priority 2016, published 2019)

Assays:
[1] = system: GFP(CAG)101 cells; assay: Cell viability (TO-PRO-3 dead cell marker, flow cytometry); type: cell-based; conditions: Cas9 D10A + gCTG transfected cells treated with DMSO or inhibitor (1 μM); three experiments
Experimental: (§1) In preparation for flow cytometry analysis, cells were re-suspended in phosphate buffered saline (PBS) with 1 mM EDTA to a concentration of about 10^6 cells/mL. For each condition, we measured at least 2×10^5 events using a LSRII from BD. Data analysis was done using Flowing II. FACS was performed using a FACS Aria II (BD) or MoFlo Astrios (Beckman Coulter). For single clone analyses, we re-suspended the cells to a concentration of 2×10^6 cells/mL and sorted the GFP^− and GFP^+ cells. The cells were then expanded in DMEM glutamax supplemented with pen-strep, blasticidine, hygromycin, 5% FBS, and 5% dialyzed calf serum. For DNA isolation, cells were re-suspended to a concentration of 1.4×10^7 cells/mL and we isolated between 4×10^4 and […] from the GFP− and GFP^+ populations. We also isolated cells with GFP intensities between the 25th and 75th percentiles. For viability tests, cells were treated as described above except that 96 hours after the first transfection they were collected in PBS with 1 mM EDTA and 1 μM of TO-PRO-3 was added as a dead cell marker.

[2] = system: GFP(CAG)101 cells; assay: GFP-based assay for CAG repeat expansions and contractions (flow cytometry of GFP- and GFP+ cells); type: cell-based, human; conditions: for frequency of GFP+ cells (contractions) induced by Cas9 nickase + gCTG under inhibitor, in words: inhibitor 1 μM, compared to DMSO controls; for Cas9 nickase + gCTG-induced GFP-/GFP+ cells on siRNA knockdown, in words: 20 nM siRNA, compared to control knockdown of vimentin
Experimental: (§2) The GFP(CAG)0 and GFP(CAG)101 cells lines were a kind gift from John H. Wilson^3. The cells tested negative for mycoplasma using the MycoAlert detection kit (Lonza) at the start of our experiments. The GFP(CAG)15, GFP(CAG)18, GFP(CAG)42, GFP(CAG)50, and GFP(CAG)270 were isolated from populations grown for 6 months unperturbed or after transfection with the ZFN. […] The cells were maintained at 37° C. with 5% CO2 in Dulbecco's modified Eagle's medium (DMEM) glutamax, supplemented with 10% Fetal Bovine Serum (FBS), 100 U/mL penicillin (pen), 100 μg/mL streptomycin (strep), 15 μg/mL blasticidine and 150 μg/mL hygromycin. When the cells were destined for flow cytometry, they were kept in DMEM glutamax, with 10% of dialyzed calf serum, along with pen-strep. During the long term culturing, the cells were split 1 to 5 twice a week and the medium was supplemented with blasticidine and hygromycin to ensure continued expression of the TetR and GFP transgenes.
The plasmids used in this study are found in Table 2. cDNA transfections were performed using 6×10^5 cells/well in 12-well plates using a total of 1 μg of DNA and Lipofectamine 2000 (Life Technologies) per well. The culture medium was replaced 6 hours after transfection and 2 μg/mL of dox, diluted in DMSO, was added. Controls without dox were treated with DMSO alone. Forty-eight hours later, the medium was replaced and dox was freshly added. Flow cytometry, protein extraction, and/or DNA extraction were performed after another 48 hours of incubation.
The siRNAs used in this study are found in Table 3. When transfecting with both a cDNA and a siRNA, 8×10^5 cells/well were used along with 1 μg of DNA and 20 nM of siRNAs using Lipofectamine 2000. The medium was replaced 6 hours later and dox was added. Forty-eight hours after the first transfection, we performed a second siRNA transfection with RNAiMax (Life technologies) using half of the cells present and 20 nM of siRNA. We collected the cells to assess knockdown efficiency or GFP fluorescence analysis 48 hours later. When transfecting two siRNAs, we used a final siRNA concentration of 40 nM, where 20 nM of each individual siRNA were used.
(§3) When using small molecule inhibitors (Table 4), the cells were treated as above, except that 2×10^5 fewer cells/well were used. The medium, along with the dox and the inhibitors, were replaced for another 48 hours of treatment. Cell cycle analysis was performed after 96 hours of treatment. Briefly, the cells were fixed with 100% ethanol and treated with RNAseA (50 μg/mL) before adding propidium iodine (50 μg/mL). Flow cytometry analysis was performed as described below.
as §1
To quantify the fold increase in the number of GFP^+ or GFP^− cells, we first established gates that contained the top or bottom 1% of GFP expressing cells in the control treatment, for example the nickase plasmid transfected together with an empty gRNA vector (pPN10). […]

[3] = system: GFP(CAG)101 cells; assay: Cell cycle analysis upon inhibitor treatment (propidium iodine, flow cytometry); type: cell-based, human; conditions: for >2n / >4n / G1 / G2 / S: Cas9 D10A + gCTG cells, DMSO or inhibitor 1 μM, 96 hours, average % of cells, n = 4
Experimental: as §3

[4] = system: PARP1/2; assay: PAR levels after Zeocin treatment (western blot); type: cell-based, human; conditions: 100 μg/ml Zeocin, 30 minutes and 24 hours
Excerpt: Dashed line: dimmest (GFP^−) or brightest (GFP^+) 1% of the cells transfected with the Cas9 nickase vector; the empty gRNA plasmid; and the indicated siRNAs. Right: western blot showing knockdown efficiency by siRNA against XRCC1. B) Left: same as A, but cells treated with the PARP inhibitor Oliparib (n=4, P=0.5 for GFP^− cells and P=0.4 for GFP^+ compared to DMSO treated-cells, using a Wilcoxon U-test). Dashed line: dimmest (GFP^−) or brightest (GFP^+) 1% of the cells transfected with the Cas9 nickase vector together with the empty gRNA plasmid, and treated with either DMSO or Oliparib. Right: PAR levels 30 minutes and 24 hours after treatment with 100 μg/ml of Zeocin. The error bars represent the standard error.
Protein extraction was done using RIPA buffer and proteinase inhibitor cocktail tablets (Roche, Germany) and at least 10 μg of proteins were loaded onto a 6% or 10% Tris/glycine SDS polyacrylamide gels and transferred onto nitrocellulose membranes. The antibodies used in this study are found in Table 6. An Odyssey Infrared Imager (Licor) was used for signal detection.

[5] = system: GFP(CAG)0 cells; assay: GFP-based reporter assay in isogenic cell line devoid of CAG repeats; set-up: species or system human; conditions: GFP(CAG)0, no CAG repeats
Experimental: as §2, with “When the cells were destined for flow cytometry, they were kept in DMEM glutamax, with 10% of dialyzed calf serum, along with pen-strep. During the long term culturing, the cells were split 1 to 5 twice a week and the medium was supplemented with blasticidine and hygromycin to ensure continued expression of the TetR and GFP transgenes.” left out
In preparation for flow cytometry analysis, cells were re-suspended in phosphate buffered saline (PBS) with 1 mM EDTA to a concentration of about 10^6 cells/mL. For each condition, we measured at least 2×10^5 events using a LSRII from BD. […]
To quantify the fold increase in the number of GFP^+ or GFP^− cells, we first established gates that contained the top or bottom 1% of GFP expressing cells in the control treatment, for example the nickase plasmid transfected together with an empty gRNA vector (pPN10). […] Once the GFP gates established, we calculated the percentage of cells from the treated population (e.g., expressing both the Cas9 nickase and the gCTG) falling within these same gates. […]

[6] = inhibitor 1 μM in combination with Cas9-nickase and gCTG, vs nickase + pPN10 + inhibitor

Compound | Viability % [1] [%] | frequency of GFP+ cells (contractions) induced by Cas9 nickase + gCTG under inhibitor, in words [2] | >2n [3] [%] | >4n [3] [%] | G1 [3] [%] | G2 [3] [%] | S [3] [%] | Cas9 nickase + gCTG-induced GFP-/GFP+ cells on siRNA knockdown, in words [2] | other results
C[C@@H]1CN(CC(=O)Nc2ccc3c(c2)Cc2cccc(-c4cc(=O)cc(N5CCOCC5)o4)c2S3)C[C@H](C)O1 [KU60019] | 77.2 | nearly two-fold reduction | 7.5 | 4.9 ± 1 | 34.9 | 37.2 | 15.3 | – | –
O=C(c1cc(Cc2n[nH]c(=O)c3ccccc23)ccc1F)N1CCN(C(=O)C2CC2)CC1 [Oliparib] | 75.9 | Neither treatment changed the frequency | 5.0 | 5.3 ± 1 | 40.7 | 30.0 | 19.0 | – | cell cycle effect, in words [3]: accumulation of G2 cells; PARylation in response to zeocin treatment [4]: inhibiting PARylation
CS(=O)(=O)c1ccc(-c2cnc(N)c(C(=O)Nc3ccccc3)n2)cc1 [VE-821] | – | – | 2.0 | 10.3 ± 3 | 41.4 | 25.4 | 20.9 | – | effect on GFP intensities / GFP expression, in words [5]: did not affect GFP expression; fold increase in GFP+ cells [2, 6]: 5.9 fold; fold increase in GFP- cells [2, 6]: 3.1 fold
siMSH2: siRNA targeting MSH2, SEQ ID No. 6 (UCUGCAGAGUGUUGUGCUU; listed as RNA, chemistry not given here) | – | – | – | – | – | – | – | did not consistently reduce | –
siRNA against XRCC1: siRNA targeting XRCC1, SEQ ID No. 8 (CAGUUUGUGAUCACAGCACAGGAAU; listed as RNA, chemistry not given here) | – | – | – | – | – | – | – | did not affect the GFP expression | –
siXPA: siRNA targeting XPA, SEQ ID No. 7 (GCUACUGGAGGCAUGGCUA; listed as RNA, chemistry not given here) | – | – | – | – | – | – | – | did not significantly reduce | –
